Reference: ChEMBL document CHEMBL1157969, “Stellettin A induces oxidative stress and apoptosis in HL-60 human leukemia and LNCaP prostate cancer cell lines” (J Nat Prod, 2006)
In brackets after ≈: the same amount, converted by molar mass. Activity calls are given as the source filed them. The rule behind the calls is not given here.

Tests used:
HL-60 [1] = assay: Induction of apoptosis in human HL60 cells assessed as increase in caspase-3 levels at 1 […] after 24 hrs by immunoblot; assay type: functional, cell-based
HL-60 [2] = assay: Induction of apoptosis in human HL60 cells assessed as increase in transcription of NOX5 after 5 hrs by immunoblot; assay type: functional, cell-based
HL-60 [3] = assay: Induction of apoptosis in human HL60 cells assessed as increase in transcription of NADPH oxidase component p47phox after 5 hrs by immunoblot; assay type: functional, cell-based
HL-60 [4] = assay: Induction of apoptosis in human HL60 cells assessed as increase in transcription of NADPH oxidase component gp91phox after 5 hrs by immunoblot; assay type: functional, cell-based
HL-60 [5] = assay: Induction of apoptosis in human HL60 cells assessed as increase in transcription of NOX4 after 5 hrs by immunoblot; assay type: functional, cell-based
HL-60 [6] = assay: Induction of apoptosis in human HL60 cells at 4 ug/mL after 24 hrs in presence of antisense caspase-3 oligonucleotide; assay type: functional, cell-based
LNCaP [7] = assay: Induction of apoptosis in human LNCaP cells assessed as mean fluorescence intensity of mitochondrial membrane potential dissipation at 20 ug/mL after 24 hrs; assay type: functional
HL-60 [8] = assay: Induction of apoptosis in human HL60 cells assessed as decrease in Bcl-2 levels at 1 […] after 24 hrs by immunoblot; assay type: functional, cell-based
LNCaP [9] = assay: Induction of apoptosis in human LNCaP cells assessed as increase in caspase-3 levels at 20 […] after 24 hrs by immunoblot; assay type: functional, cell-based
HL-60 [10] = assay: Induction of apoptosis in human HL60 cells assessed as mean fluorescence intensity of mitochondrial membrane potential dissipation at 4 ug/mL after 24 hrs; assay type: functional
LNCaP [11] = assay: Induction of apoptosis in human LNCaP cells assessed as increase in FasL levels after 24 hrs by immunoblot; assay type: functional, cell-based
HL-60 [12] = assay: Induction of apoptosis in human HL60 cells assessed as increase in FasL levels after 24 hrs by immunoblot; assay type: functional, cell-based
HL-60 [13] = assay: Induction of apoptosis in human HL60 cells assessed as increase in transcription of NOX1 after 5 hrs by immunoblot; assay type: functional, cell-based
LNCaP [14] = assay: Cytotoxicity against human LNCaP cells after 48 hrs by MTT assay; assay type: functional, cell-based
LNCaP [15] = assay: Induction of apoptosis in human LNCaP cells assessed as increase in transcription of NADPH oxidase component p47phox after 5 hrs by immunoblot; assay type: functional, cell-based
LNCaP [16] = assay: Induction of apoptosis in human LNCaP cells assessed as apoptotic bodies at 20 ug/mL after 24 hrs by fluorescence microscopy; assay type: functional
HL-60 [17] = assay: Induction of apoptosis in human HL60 cells assessed as apoptotic bodies at 4 ug/mL after 24 hrs by fluorescence microscopy; assay type: functional
HL-60 [18] = assay: Induction of apoptosis in human HL60 cells assessed as increase in transcription of NADPH oxidase component p22phox after 5 hrs by immunoblot; assay type: functional, cell-based
LNCaP [19] = assay: Induction of apoptosis in human LNCaP cells assessed as increase in transcription of NADPH oxidase component gp91phox after 5 hrs by immunoblot; assay type: functional, cell-based
LNCaP [20] = assay: Induction of apoptosis in human LNCaP cells assessed as ROS generation; assay type: functional, cell-based
HL-60 [21] = assay: Induction of apoptosis in human HL60 cells at 4 ug/mL after 24 hrs in presence of sense caspase-3 oligonucleotide; assay type: functional
LNCaP [22] = assay: Induction of apoptosis in human LNCaP cells assessed as increase in transcription of NADPH oxidase component p22phox after 5 hrs by immunoblot; assay type: functional, cell-based
HL-60 [23] = assay: Cytotoxicity against human HL60 cells after 48 hrs by MTT assay; assay type: functional, cell-based; conditions: HL-60, 48 h
LNCaP [24] = assay: Induction of apoptosis in human LNCaP cells assessed as decrease in Bcl-2 levels at 20 […] after 24 hrs by immunoblot; assay type: functional, cell-based
HL-60 [25] = assay: Induction of apoptosis in human HL60 cells assessed as mean fluorescence intensity of mitochondrial membrane potential dissipation at 1 ug/mL after 24 hrs; assay type: functional
LNCaP [26] = assay: Induction of apoptosis in human LNCaP cells assessed as increase in transcription of NADPH oxidase component p67phox after 5 hrs by immunoblot; assay type: functional, cell-based
HL-60 [27] = assay: Induction of apoptosis in human HL60 cells assessed as increase in transcription of NADPH oxidase component p67phox after 5 hrs by immunoblot; assay type: functional, cell-based

Compound: C\C(=C/C=C/C(C)=C1/C(=O)C[C@H]2[C@@]3(C)CCC(=O)C(C)(C)[C@@H]3CC[C@]12C)c1ccc(C)c(=O)o1 [STELLETIN A]
- Activity (HL-60 [1]): Active
- Activity (HL-60 [2]): inactive
- Activity (HL-60 [3]): Dose-dependent effect
- Activity (HL-60 [4]): Dose-dependent effect
- Activity (HL-60 [5]): inactive
- Activity (HL-60 [6]): inactive
- Activity (LNCaP [7]): 38.82
- Activity (HL-60 [8]): Active
- Activity (LNCaP [9]): inactive
- Activity (HL-60 [10]): 3.09
- Activity (LNCaP [11]): Dose-dependent effect
- Activity (HL-60 [12]): Dose-dependent effect
- Activity (HL-60 [13]): inactive
- IC50 (LNCaP [14]): 120 µg/mL (≈ 259 µM)
- Activity (LNCaP [15]): inactive
- Activity (LNCaP [16]): <10%
- Activity (HL-60 [17]): 56%
- Activity (HL-60 [18]): Dose-dependent effect
- Activity (LNCaP [19]): inactive
- Activity (LNCaP [20]): Active
- Activity (HL-60 [21]): 51%
- Activity (LNCaP [22]): inactive
- IC50 (HL-60 [23]): 0.4 µg/mL (≈ 0.865 µM)
- Activity (LNCaP [24]): inactive
- Activity (HL-60 [25]): 23.28
- Activity (LNCaP [26]): inactive
- Activity (HL-60 [27]): Dose-dependent effect
